The text below walks through data of patent EP0117302A2, “Phenothiazine derivatives” (THE WELLCOME FOUNDATION LIMITED, priority 1982, dated 1984).

In one data set the test system is compound 48/80. Description: Inhibition of compound 48/80 induced anaphylactoid reaction. Format: in vivo, Wister rats. To be noted: Rattus norvegicus, rats, compound administered 2 hrs. prior to test, read-out: ED50 (dose providing 50% protection against death induced by compound 48/80). Here is the method:
Non-fasted, Wister rats (180-300g).were dosed with the test compound, (i.p. or p.o.) 2 hours before compound 48/80 challenge. One hour prior to challenge, 5 mg/kg i.p. of propranolol was administered. The anaphylactoid inducing agent, compound 48/80, was given intravenously at 2 mg/kg and the animals were monitored for symptoms of respiratory distress.
Data were analyzed by Probit determinations. the response was quantitated by determining the dose of test compound which protected 50% of the animals from death at a given time point.
Agents which block the effects of compound 48/80 are commonly classified as inhibitors of anaphylactic mediators or inhibitors of the release of anaphylic mediators.

The test system of data set [1] is histamine. As to the kind of experiment: In vitro antihistamine activity: histamine concentration-response curves on isolated ileum longitudinal muscle, Schild plot. The class given is cell-based, guinea-pigs. To be noted: guinea-pig ileum longitudinal muscle, one hour incubation with test compound, antagonism of histamine; for Kb: Cavia porcellus, 1 h, read-out: pA2 (converted); for pA2: 60 min. How it is done: A. In vitro antihistamine activity: The longitudinal muscle was isolated from the intact ileum of guinea-pigs (Hartley, male 250-400g) and placed in an organ bath under 300 mg tension. […] Following washing, the tissues were incubated for one hour with the test compound and then a second histamine concentration-response curve was run. […] Regression of Log (dr-1) on Log [B], where dr is an equiactive response in the presence and absence of antagonist and [B] is the molar concentration of antagonist, allowed an estimate of pA2, i.e. the negative log of the concentration of antagonist which shifts the control histamine concentration response curve 2X to the right.

In data set [2] the test system is histamine. As to the kind of experiment: In vivo antihistaminic activity: protection against histamine aerosol challenge. Particulars: Cavia porcellus, po, guinea pigs.
Experimental: B. In vivo Antihistaminic Activity: Guinea pigs (Hartley, male, 300-350 g) were fasted for 20 hours and then dosed p.o. or i.p. with the test compound. One hour after dosing, on an individual basis, the guinea pigs were placed in a clear plastic chamber which was saturated and continually gassed with 0.25% histamine from an aerosol nebulizer. The guinea pigs were monitored for signs of histamine anaphylaxis (e.g. cough, sneeze, strong abdominal movements, cyanoses or loss of righting). […] ED50's for protection against histamine were calculated by probit analysis. […] Complete protection was defined as no histamine symptoms for six minutes in the aerosol chamber (approximately 10X the collapse time of the control animals).
A short description of data set [3]: Pharmacokinetic studies: relative distribution in brain and plasma. Format: in vivo. Particulars: rodents, compared with promethazine.
Data set [4] is described as follows: Acute toxicity (approximate LD50). Particulars: rat, in vivo, rats.

Where two headings read alike, the source gives them in different places. A value given as a limit tells only on which side of the number the result lay.

In the case of `CN1CCC(=C2c3ccccc3CC(=O)c3sccc32)CC1` [Ketotifen, reference compound], in the data set on compound 48/80 (ip), the ED50 came out at 0.87 mg/kg.
Same read-out and setting: next, `COc1ccc(CCN2CCC(Nc3nc4ccccc4n3Cc3ccc(F)cc3)CC2)cc1` [Astemizole, reference compound]: 1.08 mg/kg.
As for `CC(CN1c2ccccc2Sc2ccc(C(C)(C)C(=O)O)cc21)N(C)C` (centres unmarked) [Compound P], the Kb in the data set with histamine [1] is 1.58 nM.
On the same count and under the same terms, next, `CCOC(=O)C(C)(C)c1ccc2c(c1)N(CC(C)N(C)C)c1ccccc1S2` (centres unmarked) [Compound O, Ethyl 2-[10-(2-dimethylaminopropyl)-2-phenothiazinyl]-2-methylpropionate]: 3.16 nM.
Regarding “[10-(2-diethylaminoethyl)-7-fluoro-2-phenothiaznyl]acetic acid [Compound N]”, the pA2 with histamine [1] came out at 8.6.
Consider `Cc1ccc2c(c1)Sc1ccc(CC(=O)O)cc1N2CCN(C)C` [Compound M, [10-(2-Dimethylaminoethyl)-7-methyl-2-phenothiazinyl]acetic acid], for which, in the data set on histamine [1], the Kb was 1.26 nM.
Same read-out and setting: the figure for `CC(CN1c2ccc(Cl)cc2Sc2ccc(CC(=O)O)cc21)N(C)C` (centres unmarked) [Compound K, [7-Chloro-10-(2-dimethylaminopropyl)-2-phenothiazinyl]acetic acid] is 1.58 nM; for `CCOC(=O)Cc1ccc2c(c1)N(CC(C)N(C)C)c1ccc(Cl)cc1S2` (centres unmarked) [Compound J] it is 1 nM; for `CC(CN1c2ccccc2Sc2cc(CCC(=O)O)ccc21)N(C)C` (centres unmarked) [Compound F, 3-(2-carboxyethyl)-10-(2-dimethylaminopropyl)phenothiazine] it is 6310 nM.
Compound “10-(2-dimethylaminopropyl)phenothiazine-4(or 1)-carboxylic acid [Compound G]” yielded a pA2 in the data set with histamine [1] of 6.8.
`CC(CN1c2ccccc2Sc2ccc(/C=C/C(=O)O)cc21)N(C)C` (stereo not drawn) [Compound A, trans-β-[10-(2-Dimethylaminopropyl)phenothiazin-2-yl]acryiic acid]: in the data set on histamine [1], the Kb was 6.31 nM. Besides, the ED50 with compound 48/80 (ip) came out at 2.64 mg/kg; in the data set on histamine [2] (0.25% histamine aerosol, 1 hour post-dosing, read-out: ED50), 1.7 mg/kg; in the data set with histamine [2] (24 hours protection, read-out: ED50 for 24 hours protection), 11 mg/kg. Further, the brain penetration entry in data set [3] was “do not readily penetrate the brains of rodents”.
Regarding “4 (or 1)-(2-carboxyethyl)-10-(2-dimethylaminopropyl)-phenothiazine [Compound I]”, in the data set with histamine [1], the pA2 turned out to be 7.2.
For `CC(CN1c2ccccc2Sc2ccc(C(=O)O)cc21)N(C)C` (centres unmarked) [Compound S, 10-(2-Dimethylaminopropyl)phenothiazin-2-yl-carboxylic acid], the Kb in the data set on histamine [1] was 1 nM.
Still for that read-out and setting: next, `CC(CN1c2ccccc2Sc2cc(C(=O)O)ccc21)N(C)C` (centres unmarked) [Compound D, 10-(2-dimethylaminopropyI)phenothiazine-3-carboxylic acid]: 631 nM.
As to `CC(CN1c2ccccc2Sc2ccc(CC(=O)O)cc21)N(C)C` (centres unmarked) [Compound B, 2-[10-(2-Dimethylaminopropyl)phenothiazin-2-yl]acetic acid], the median lethal dose (LD50) is about 210 mg/kg in data set [4] (ip) and over 500 mg/kg in data set [4] (po). The Kb with histamine [1] was 0.398 nM. Besides, the ED50 was 0.89 mg/kg in the data set with compound 48/80 (ip); 1.2 mg/kg in the data set on compound 48/80 (po); 0.3 mg/kg in the data set with histamine [2] (0.25% histamine aerosol, 4 hours post dosing, read-out: ED50). Besides, the brain penetration entry in data set [3] is “do not readily penetrate the brains of rodents”.
`CN(C)CCCN1c2ccccc2Sc2ccc(C(C)(C)C(=O)O)cc21` [Compound Q, 2-[10(3-dimethylaminopropyl)-2-phenothiazinyl]-2-methylpropionic acid]: the Kb in the data set with histamine [1] is 2 nM.
In the case of `CC(C(=O)O)c1ccc2c(c1)N(CC(C)N(C)C)c1ccccc1S2` (centres unmarked) [Compound C, 2-[10-(2-Dimethylaminopropyi)phenothiazin-2-yl]propionic acid], the Kb with histamine [1] is 7.94 nM. The ED50 in the data set on compound 48/80 (ip) came to 1.43 mg/kg.
For `CC(CN1c2ccccc2Sc2cc(/C=C/C(=O)O)ccc21)N(C)C` (centres unmarked) [Compound E, E-3-(2-carboxyvinyl)-10-(2-dimethylaminopropyl)-phenothiazine] the same measures were 631 nM and 3.11 mg/kg.
On to `CCOC(=O)Cc1ccc2c(c1)N(CCN(C)C)c1ccc(C)cc1S2` [Compound L, Ethyl [10-(2-dimethylaminoethyl)-7-methyl-2-phenothiazinyl]acetate], for which the Kb in the data set with histamine [1] was 0.794 nM.
On to “E-4 (or 1)-(2-carboxyvinyl)-10-(2-dimethylaminopropyl)phenothiazine [Compound H]”, for which the pA2 in the data set with histamine [1] came out at 7.8.

What is called pA2 is the negative logarithm of the molar antagonist concentration that doubles the agonist concentration needed for the same response. What is called LD50 is the dose expected to kill half of the subjects tested. Read a high LD50 as lower toxicity.
